The results in this text go back to US20200281937A1, “USL-311 FOR USE IN THE TREATMENT OF CANCER” (Proximagen, LLC, priority 2017, published 2020).

What all share (assay type): in vivo
In one assay the test system is Renca (kidney cancer). Description: Syngeneic subcutaneous tumour growth inhibition, Renca. To be noted: Renca s.c. tumour in mice, 50 mg/kg p.o. 5 days out of 7, vs vehicle group. The procedure:
(§1) Nine syngeneic cell lines from […] different cancer types (EMT-6 (breast cancer), MBT2 (bladder cancer), CT26 (colorectal cancer), B16F10small, B16BL6 (both melanoma), A20 (lymphoma), LL/2 (lung cancer), Renca (kidney cancer), H22 (liver cancer)) were cultured and when in exponential growth were inoculated in mice subcutaneously with tumour cells in 0.1 mL of PBS for tumour development. After the mean tumour size reached approximately 80-120 mm^3 the mice were treated with 6-{4-[1-(Propan-2-yl)piperidin-4-yl]-1,4-diazepan-1-yl}-N-(pyridin-4-yl)pyridine-2-carboxamide (50 mg/kg p.o. 5 days out of 7). Tumour volumes were measured twice weekly at least in two dimensions using a caliper, and the volume expressed in mm^3 using the formula: V=0.5 a×b^2 where a and b are the long and short diameters of the tumour, respectively. Tumour growth was measured and inhibition of tumour growth reported in comparison to a vehicle treated group. All groups contained 8 mice. If the tumours in a group reached an average volume of 2000 mm^3, the experiment was terminated.

In a further assay the test system is LL/2 (lung cancer). Description: Syngeneic subcutaneous tumour growth inhibition, LL/2. The note with it: LL/2 s.c. tumour in mice, 50 mg/kg p.o. 5 days out of 7, vs vehicle group. The procedure: as §1
The subject of a further assay is B16F10small (melanoma). Description: Syngeneic subcutaneous tumour growth inhibition, B16F10small. To be noted: B16F10small s.c. tumour in mice, 50 mg/kg p.o. 5 days out of 7, vs vehicle group. Here is the method: as §1
The test system of the next assay is MBT2 (bladder cancer). Description: Syngeneic subcutaneous tumour growth inhibition, MBT2. To be noted: MBT2 s.c. tumour in mice, 50 mg/kg p.o. 5 days out of 7, vs vehicle group. The procedure: as §1
The subject of the next assay is CT26 (colorectal cancer). As to the kind of experiment: Syngeneic subcutaneous tumour growth inhibition, CT26. The note with it: CT26 s.c. tumour in mice, 50 mg/kg p.o. 5 days out of 7, vs vehicle group. Here is the method: as §1
In a further assay the test system is A20 (lymphoma). Description: Syngeneic subcutaneous tumour growth inhibition, A20. The note with it: A20 s.c. tumour in mice, 50 mg/kg p.o. 5 days out of 7, vs vehicle group. The procedure:
as §1

Another assay deals with B16BL6 (melanoma). Description: Syngeneic subcutaneous tumour growth inhibition, B16BL6. To be noted: B16BL6 s.c. tumour in mice, 50 mg/kg p.o. 5 days out of 7, vs vehicle group. The procedure:
as §1

The subject of a further assay is H22 (liver cancer). As to the kind of experiment: Syngeneic subcutaneous tumour growth inhibition, H22. To be noted: H22 s.c. tumour in mice, 50 mg/kg p.o. 5 days out of 7, vs vehicle group. The procedure:
as §1

In a further assay the test system is EMT-6 (breast cancer). Description: Syngeneic subcutaneous tumour growth inhibition, EMT-6. To be noted: EMT6 s.c. tumour in mice, 50 mg/kg p.o. 5 days out of 7, vs vehicle group. The procedure: as §1

As to `CC(C)N1CCC(N2CCCN(c3cccc(C(=O)Nc4ccncc4)n3)CC2)CC1` [6-{4-[1-(Propan-2-yl)piperidin-4-yl]-1,4-diazepan-1-yl}-N-(pyridin-4-yl)pyridine-2-carboxamide], the “% inhibition of tumour growth relative to control” value came to 0% in the assay on Renca (kidney cancer); 7.8% in the assay with LL/2 (lung cancer); 0% with B16F10small (melanoma); 29.3% in the assay on MBT2 (bladder cancer); 32.1% in the assay on CT26 (colorectal cancer); 11.6% with A20 (lymphoma). Also, the “% inhibition of tumour growth relative to control” value in the assay on B16BL6 (melanoma) came to 0%; with H22 (liver cancer) it was 20.1%; in the assay with EMT-6 (breast cancer), 79.8%.
